EC50 data for 29 compounds are collected here from patent US8822430B2 (Gilead Sciences, Inc., priority 2009, dated 2014).

The experiment concerns HCV 1b RLuc cells (dicistronic genotype 1b Con1 replicon). In words: Renilla luciferase (RLuc)-based HCV replicon reporter assay. It counts as cell-based, HCV genotype 1b. Conditions: Hepatitis C virus, 72 h, HCV 1b RLuc replicon, 72 hours; read-out: Activity (antiviral potency [EC50]). Put shortly: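 HCV 1b RLuc cells carrying a dicistronic genotype 1b Con1 replicon were treated with serially diluted compounds from 10 mM DMSO stocks. After 72 h, cells were lysed and Renilla luciferase activity measured. EC50 was obtained by non-linear regression.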
A general note: In antiviral work, replicon cells carry a viral genome segment that copies itself.
As to `COC(=O)N[C@H](C(=O)N1CCC[C@H]1c1ncc(-c2ccc(-c3ccc(-c4cnc([C@@H]5CC[C@H]6CN(C(=O)OC)CC(=O)N65)[nH]4)cc3)cc2)[nH]1)C(C)C`, the EC50 (commonly the concentration giving half of the maximal effect) turned out to be 0.0664 nM. In the case of `COC(=O)N[C@@H](C(=O)N1CCC[C@@H]1c1ncc(-c2ccc3c(c2)S(=O)(=O)c2cc(-c4cnc([C@H]5CCCN5C(=O)[C@H](NC(=O)OC)C(C)C)[nH]4)ccc2-3)[nH]1)C(C)C`, the EC50 came out at 0.0535 nM. As for `COC(=O)N[C@H](C(=O)N1CCC[C@H]1c1ncc(-c2ccc(N3CCC(c4cnc([C@@H]5CCCN5C(=O)[C@@H](NC(=O)OC)C(C)C)[nH]4)CC3)cc2)[nH]1)C(C)C`, the figure is 0.456 nM. To `COC(=O)N[C@@H](CCS(C)(=O)=O)C(=O)N1CC2(CC2)C[C@H]1c1ncc(-c2ccc(-c3ccc4cc(-c5cnc([C@@H]6C[C@H](C#N)CN6C(=O)[C@@H](NC(=O)OC)C(C)C)[nH]5)ccc4c3)cc2)[nH]1` belongs 0.0405 nM; to `COC(=O)N[C@H](C(=O)N1C[C@@H](C#N)C[C@H]1c1ncc(-c2ccc3cc(-c4ccc(-c5cnc([C@@H]6[C@H]7CC[C@H](C7)N6C(=O)[C@@H](NC(=O)OC)C(C)C)[nH]5)cc4)ccc3c2)[nH]1)C(C)C`, 0.0097 nM; to `COC(=O)N[C@H](C(=O)N1CCC[C@H]1c1ncc(-c2ccc3c(c2)COc2cc(-c4ccc5nc([C@@H]6[C@H]7CC[C@H](C7)N6C(=O)[C@@H](NC(=O)OC)C(C)C)[nH]c5c4)ccc2-3)[nH]1)C(C)C`, 0.007 nM. As for `COC(=O)N[C@H](C(=O)N1CCC[C@H]1c1ncc(-c2ccc3c(c2)C(=O)c2cc(-c4ccc5nc([C@@H]6[C@H]7CC[C@H](C7)N6C(=O)[C@@H](NC(=O)OC)C(C)C)[nH]c5c4)ccc2-3)[nH]1)C(C)C`, the figure is 0.006 nM; as for `COC(=O)N[C@@H](CC#N)C(=O)N1[C@@H]2CC[C@@H](C2)[C@H]1c1nc2ccc(-c3ccc4c(c3)C(F)(F)c3cc(-c5cnc([C@@H]6CC7(CC7)CN6C(=O)[C@@H](NC(=O)OC)C(C)C)[nH]5)ccc3-4)cc2[nH]1`, 0.004 nM; as for `COC(=O)N[C@@H](CS(C)(=O)=O)C(=O)N1[C@@H]2CC[C@@H](C2)[C@H]1c1nc2ccc(-c3ccc4c(c3)C(F)(F)c3cc(-c5cnc([C@@H]6CC7(CC7)CN6C(=O)[C@@H](NC(=O)OC)C(C)C)[nH]5)ccc3-4)cc2[nH]1`, 0.005 nM. Take `COC(=O)N[C@H](C(=O)N1[C@@H]2CC[C@@H](C2)[C@H]1c1nc2ccc(-c3ccc4c(c3)C(=O)c3cc(-c5cnc([C@@H]6CC7(CC7)CN6C(=O)[C@H](NC(=O)OC)C(C)C)[nH]5)ccc3-4)cc2[nH]1)C(C)C`: the EC50 is 0.005 nM.

Take `COC(=O)N[C@H](C(=O)N1CC2(CC2)C[C@H]1c1ncc(-c2ccc3c(c2)C2(CC2)c2cc(-c4ccc5nc([C@@H]6[C@H]7CC[C@H](C7)N6C(=O)[C@@H](NC(=O)OC)C(C)C)[nH]c5c4)ccc2-3)[nH]1)C(C)C`: the EC50 came to 0.0073 nM. As for `COC(=O)N[C@H](C(=O)N1CC2(CC2)C[C@H]1c1ncc(-c2ccc3c(c2)oc2cc(-c4ccc5nc([C@@H]6[C@H]7CC[C@H](C7)N6C(=O)[C@@H](NC(=O)OC)C(C)C)[nH]c5c4)ccc23)[nH]1)C(C)C`, the figure is 0.0041 nM; as for `COC(=O)N[C@H](C(=O)N1CCC[C@H]1c1ncc(-c2ccc3c(c2)Nc2ccc(-c4cnc([C@@H]5CCCN5C(=O)[C@@H](NC(=O)OC)C(C)C)[nH]4)cc2S3)[nH]1)C(C)C`, 1.72 nM; as for `CON[C@H](C(=O)N1CCC[C@H]1c1ncc(-c2ccc(-c3ccc4cc(-c5cnc([C@@H]6CCCN6C(=O)[C@@H](NC(=O)OC)C(C)C)[nH]5)ccc4c3)cc2)[nH]1)C(C)C`, 0.525 nM. To `COC(=O)N[C@H](C(=O)N1CCC[C@H]1c1ncc(-c2ccc(-c3cc4ccc(-c5cnc([C@@H]6CCCN6C(=O)[C@@H](NC(=O)OC)C(C)C)[nH]5)cc4s3)cc2)[nH]1)C(C)C` belongs 0.0093 nM. To `COC(=O)N[C@H](C(=O)N1CCC[C@H]1c1nc(-c2ccc3c(c2)C(F)(F)c2cc(-c4cnc([C@@H]5CC6(CC6)CN5C(=O)[C@@H](NC(=O)OC)C(C)C)[nH]4)ccc2-3)c[nH]1)C(C)C` belongs 0.0125 nM; to `COC(=O)N[C@H](C(=O)N1CC2(CC2)C[C@H]1c1ncc(-c2ccc3c(c2)C(F)(F)c2cc(-c4c[nH]c([C@@H]5CCCN5C(=O)[C@@H](NC(=O)OC)C5CCOCC5)n4)ccc2-3)[nH]1)C(C)C`, 0.0614 nM. As to `COC(=O)N[C@@H](CCSC)C(=O)N1CCC[C@H]1c1nc(-c2ccc3c(c2)C(F)(F)c2cc(-c4cnc([C@@H]5CC6(CC6)CN5C(=O)[C@@H](NC(=O)OC)C(C)C)[nH]4)ccc2-3)c[nH]1`, the concentration for a half-maximal effect (EC50) was determined as 0.0204 nM. To `COC(=O)N[C@H](C(=O)N1CCC[C@H]1c1ncc(-c2ccc(-c3ccc4c(c3)C(F)(F)c3cc(-c5cnc([C@@H]6CC7(CC7)CN6C(=O)[C@@H](NC(=O)OC)C(C)C)[nH]5)ccc3-4)cc2)[nH]1)C(C)C` belongs 0.0208 nM; to `COC(=O)N[C@H](C(=O)N1C[C@@H](C#N)C[C@H]1c1ncc(-c2ccc3cc(-c4ccc(-c5cnc([C@@H]6CC7(CC7)CN6C(=O)[C@@H](NC(=O)OC)C(C)C)[nH]5)cc4)ccc3c2)[nH]1)C(C)C`, 0.0169 nM.

With `CC[C@H](NC(=O)OC)C(=O)N1C[C@@H](C#N)C[C@H]1c1ncc(-c2ccc3cc(-c4ccc(-c5cnc([C@@H]6CC7(CC7)CN6C(=O)[C@@H](NC(=O)OC)C(C)C)[nH]5)cc4)ccc3c2)[nH]1`, the EC50 came out at 0.0155 nM. As for `COC(=O)N[C@H](C(=O)N1CCC[C@H]1c1ncc(-c2ccc3cc(-c4ccc(-c5cnc([C@@H]6C[C@H](CN(C)C)CN6C(=O)[C@@H](NC(=O)OC)C(C)C)[nH]5)cc4)ccc3c2)[nH]1)C(C)C`, the figure is 0.125 nM; as for `COC(=O)N[C@H](C(=O)N1CCC[C@H]1c1ncc(-c2ccc3cc(-c4ccc(-c5cnc([C@@H]6C[C@H](CNS(C)(=O)=O)CN6C(=O)[C@@H](NC(=O)OC)C(C)C)[nH]5)cc4)ccc3c2)[nH]1)C(C)C`, 0.12 nM. Consider `COC(=O)N[C@H](C(=O)N1CCC[C@H]1c1ncc(-c2ccc3cc(-c4ccc(-c5cnc([C@@H]6C[C@H](CNC(C)=O)CN6C(=O)[C@@H](NC(=O)OC)C(C)C)[nH]5)cc4)ccc3c2)[nH]1)C(C)C`, for which the EC50 amounted to 0.138 nM.

Take `COC(=O)N[C@H](C(=O)N1CC2(CC2)C[C@H]1c1ncc(-c2ccc(-c3ccc4cc(-c5cnc([C@@H]6C[C@H](C#N)CN6C(=O)[C@@H](NC(=O)OC)C(C)(C)C)[nH]5)ccc4c3)cc2)[nH]1)C(C)C`: the EC50 is 0.0165 nM.

In the case of `COC(=O)N[C@@H](C)C(=O)N1[C@@H]2CC[C@@H](C2)[C@H]1c1ncc(-c2ccc(-c3ccc4cc(-c5cnc([C@@H]6CC7(CC7)CN6C(=O)[C@@H](NC(=O)OC)C(C)C)[nH]5)ccc4c3)cc2)[nH]1`, the EC50 was 0.0156 nM. To `COCC[C@H](NC(=O)OC)C(=O)N1[C@@H]2CC[C@@H](C2)[C@H]1c1ncc(-c2ccc(-c3ccc4cc(-c5cnc([C@@H]6CC7(CC7)CN6C(=O)[C@@H](NC(=O)OC)C(C)C)[nH]5)ccc4c3)cc2)[nH]1` belongs 0.0119 nM; to `CC[C@H](NC(=O)OC)C(=O)N1C[C@@H](C#N)C[C@H]1c1ncc(-c2ccc(-c3ccc4cc(-c5cnc([C@@H]6CC7(CC7)CN6C(=O)[C@@H](NC(=O)OC)C(C)C)[nH]5)ccc4c3)cc2)[nH]1`, 0.0176 nM; to `COC(=O)N[C@H](C(=O)N1CC2(CC2)C[C@H]1c1ncc(-c2ccc3cc(-c4ccc(-c5cnc([C@@H]6C[C@H](C#N)CN6C(=O)[C@@H](NC(=O)OC)C(C)(C)C)[nH]5)cc4)ccc3c2)[nH]1)C(C)C`, 0.0127 nM.
